Results on eight compounds are retold here after ChEMBL document CHEMBL1201862, “PubChem BioAssay data set” (2004).

For orientation: IC50 means the concentration that inhibits the measured activity by half. Usually AC50 stands for the concentration at which the activity in the assay is half-maximal.

Assay [1] is described as follows: half-maximal inhibitory concentration for glucagon-like peptide-1 release, STC-1 cell line, dose-response (AID 1117345). It counts as functional, cell-based.
Assay [2] is described as follows: Glucagon-like peptide 1 release potency, NCI-H716 cell line, dose-response, half-maximal inhibitory concentration (AID 1117344). The assay is classed as functional, cell-based.
For assay [3], the target named is RNA-editing ligase 1, mitochondrial (Trypanosoma brucei brucei, UniProt P86926). Put plainly: TbREL1 ligase inhibitors, dose response, biochemical, fluorescence, Trypanosoma brucei (AID 1117295). The assay is classed as functional.
Assay [4] is described as follows: A549 cell cytotoxicity, dose response, cytotoxicity control, 24 h, CellTiter-Glo luminescence, cherry-picks (AID 1053115). It counts as functional, cell-based. Particulars: A549, 24 h.
Assay [5] is described as follows: M. tuberculosis growth inhibition, HTS (AID 449762). It counts as functional.
Assay [6] deals with Mitogen-activated protein kinase 10 (Homo sapiens, UniProt P53779). Put plainly: Dose response biochemical screening assay for inhibitors of c-Jun N-Terminal Kinase 3 (JNK3). [Related pubchem assays: 746 ].
Assay [7] can be described thus: Luminescence-based cell-based high throughput dose response assay to identify activators of the DAF-12 from the parasite S. stercoralis (ssDAF-12). It counts as functional.
Assay [8] has as its target T1, Oxysterols receptor LXR-beta (Homo sapiens, UniProt P55055).
T1 sequence (P55055 whole entry): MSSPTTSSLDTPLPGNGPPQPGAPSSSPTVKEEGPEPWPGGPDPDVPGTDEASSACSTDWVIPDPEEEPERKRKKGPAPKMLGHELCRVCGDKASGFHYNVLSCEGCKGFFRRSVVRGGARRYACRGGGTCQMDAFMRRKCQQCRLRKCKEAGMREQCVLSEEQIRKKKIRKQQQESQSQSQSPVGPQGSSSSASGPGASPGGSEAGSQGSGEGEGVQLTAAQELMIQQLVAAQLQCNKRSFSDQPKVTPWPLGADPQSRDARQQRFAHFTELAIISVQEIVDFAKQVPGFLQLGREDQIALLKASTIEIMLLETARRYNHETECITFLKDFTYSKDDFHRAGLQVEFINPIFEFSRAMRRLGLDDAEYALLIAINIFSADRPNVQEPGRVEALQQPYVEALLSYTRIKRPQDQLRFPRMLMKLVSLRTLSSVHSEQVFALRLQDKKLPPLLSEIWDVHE
Put plainly: LXR agonists, Gal4 luciferase reporter, dose response, counter-screen for ssDAF-12 agonist project, cell-based, luminescence, HEK293, S. stercoralis campaign (AID 720737). It counts as functional. Particulars: read-out: IC50 (the source's name). A general note: Reporter assays use an easily measured gene product as a stand-in for the process of interest.

The nature of assay [9]: P. falciparum Dd2 growth inhibitors, dose response, SYBR Green, dry powder samples, set 9 (AID 1159568). The assay is classed as functional, cell-based.
Assay [10] in a line: Mtb BioA inhibitors by displacement, dose response, biochemical, coupled fluorescence displacement, 20-point, dry powder (AID 743357). The assay is classed as functional.

The source made the active and inactive calls. Where only a bound is given, the exact number is not on record here.

Mitogen-activated protein kinase 10, sequence (P53779 whole entry): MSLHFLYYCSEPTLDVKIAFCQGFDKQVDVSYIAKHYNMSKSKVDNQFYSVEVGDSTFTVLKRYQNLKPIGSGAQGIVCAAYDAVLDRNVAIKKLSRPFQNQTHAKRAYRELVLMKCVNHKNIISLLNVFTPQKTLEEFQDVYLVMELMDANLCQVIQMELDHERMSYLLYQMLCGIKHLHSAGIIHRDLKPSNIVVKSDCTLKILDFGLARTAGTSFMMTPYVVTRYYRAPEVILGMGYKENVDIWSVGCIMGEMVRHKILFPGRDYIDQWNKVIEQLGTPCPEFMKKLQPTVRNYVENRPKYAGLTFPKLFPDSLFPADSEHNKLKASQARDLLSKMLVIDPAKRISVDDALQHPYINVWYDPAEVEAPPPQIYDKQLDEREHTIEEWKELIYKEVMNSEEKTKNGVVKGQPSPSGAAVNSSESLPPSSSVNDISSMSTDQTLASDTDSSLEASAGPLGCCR
RNA-editing ligase 1, mitochondrial, sequence (P86926 whole entry): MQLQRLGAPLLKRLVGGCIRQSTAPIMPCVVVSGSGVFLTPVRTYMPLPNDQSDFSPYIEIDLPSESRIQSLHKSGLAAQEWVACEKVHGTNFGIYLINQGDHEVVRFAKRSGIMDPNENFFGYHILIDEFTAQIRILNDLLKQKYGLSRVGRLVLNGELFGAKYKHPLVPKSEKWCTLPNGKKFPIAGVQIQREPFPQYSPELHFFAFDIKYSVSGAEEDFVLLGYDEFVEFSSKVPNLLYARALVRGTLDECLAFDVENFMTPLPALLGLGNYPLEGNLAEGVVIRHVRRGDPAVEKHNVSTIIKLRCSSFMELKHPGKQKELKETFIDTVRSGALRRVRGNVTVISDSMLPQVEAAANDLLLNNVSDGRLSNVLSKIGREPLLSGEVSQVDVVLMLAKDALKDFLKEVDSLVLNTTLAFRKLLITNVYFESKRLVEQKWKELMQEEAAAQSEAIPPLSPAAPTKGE

In the case of `O=C(Nc1cccc2c(=O)cc(-c3nnn[nH]3)oc12)c1ccc(OCCCCc2ccccc2)cc1`, the IC50 in assay [1] and in [2] was > 40 µM (inactive) each time.

Turning to `O=C(O)c1ccnc(C(=O)O)c1`, in assay [3], the IC50 was > 96.6 µM (inactive). With `OC[C@@H]1Nc2ccc(-c3ccccc3)cc2[C@@H]2[C@H]1CCN2Cc1ccc(F)cc1`, the AC50 in assay [4] is > 60 µM (inactive). On to `C/C(CC(=O)Nc1ccc(C)c(Cl)c1)=N\NC(=O)Cc1cnc(N)s1`, for which the IC50 in assay [5] was > 100 µM (active).

As to `Cc1cccc(/N=C/c2c(O)[nH]c3ccccc23)n1`, the IC50 in assay [6] is on record as 41.7 µM (not active). On to `Oc1[nH]ncc1/C=N/c1ccc(Oc2ccccc2)cc1`, for which the IC50 in assay [7] is > 67.5 µM (inactive). In addition, the EC50 in [8] was > 67.5 µM (inactive).

`O=C(Nc1ccccc1F)N1CCCCN2[C@H](CO)[C@@H](c3ccc(/C=C/c4ccccc4)cc3)[C@H]2C1`: the AC50 in assay [9] is 1.72 µM (active). With `N#Cc1ccc(N2CCN(C(=O)c3ccc4c(c3)OCO4)CC2)cc1`, the AC50 in assay [10] was 16.8 µM (active).
